Reference: patent US11446269B2, “Methods of reducing or preventing oxidation of small dense LDL or membrane polyunsaturated fatty acids” (Amarin Pharmaceuticals Ireland Limited, priority 2014, dated 2022)

Assays:
[1] = tested on: human sdLDL; assay: Copper-induced sdLDL oxidation, TBARS after 2 hr (Example 6); format: biochemical; conditions: 10 μM CuSO4, vs vehicle
Procedure: Venous blood was collected from healthy volunteers into vacutainer tubes containing sodium EDTA. Plasma was separated by centrifugation at 3000 g for 25 min at 4° C. and adjusted to a density of 1.020 g/mL with KBr. Triglyceride-rich lipoproteins (TGRL) and LDL fractions were then isolated by sequential centrifugation at 70,000 rpm at 4° C. in a Beckman LE-80 ultracentrifuge using a Beckman 50.4Ti rotor (Beckman Coulter, Inc., Fullerton, Calif.). The TGRL fraction (with a relative density of <1.020) was aspirated from the top of the centrifugate and discarded, leaving an LDL-enriched infranate (with a relative density of 1.020 to 1.063). The plasma LDL fraction was further fractionated into LDL1, LDL2, LDL3, and LDL4 (sdLDL) subfractions with relative densities of 1.020 to 1.035, 1.035 to 1.050, 1.050 to 1.063, and 1.063 to 1.075, respectively. The sdLDL subfraction was retained for additional experimentation. Plasma and lipoprotein fractions were maintained at 4° C. and protected from excessive exposure to light. Prior to oxidation experiments, EDTA was removed from the lipoprotein fraction using PD-10 desalting columns (GE Healthcare, Piscataway N.J.). After equilibration of the column with phosphate buffered saline (PBS), 2.5 mL of the lipoprotein fraction was loaded on the column and the flow-through discarded. The lipoprotein was then eluted with 3 mL of PBS. The LDL fractions were further diluted with PBS to obtain a 100 μg/mL apoB100 concentration.
LDL and sdLDL subfractions (0.6 mL each) were incubated with either 10 μL vehicle (ethanol) or 10 μL drug stock solution for 30 min to 1 hr at 37° C. Oxidation was initiated by the addition of 10 μM CuSO4. After 2 hr, 100 μL aliquots were removed from each subfraction and combined with 1.0 mL thiobarbituric acid (0.5%), 10 μL trichloroacetic acid (5%), 10 μL BHT (5 mg/mL in methanol), and 10 μL EDTA (5 mM). […]. Sample TBARS concentrations were determined spectrophotometrically by measuring sample absorbances against a standard curve derived from the hydrolysis of 1,1,3,3-tetramethoxypropane.

[2] = tested on: HUVECs; assay: NO and ONOO^− release from HUVECs exposed to oxLDL, nanosensors (Example 8); format: cell-based, human; conditions: oxLDL 20 min, then agent 1 hour (EPA 10 μM, ATM 1.0 μM)
Procedure: Human umbilical vein endothelial cells (HUVECs) were isolated into primary cultures from female donors by Clonetics (San Diego, Calif.) and purchased as proliferating cells. All cell culture donors were healthy, with no pregnancy or prenatal complications. […] The confluent cells (4 to 5×10^5 cells/35 mm dish) were placed with minimum essential medium containing 3 mM L-arginine and 0.1 mM BH4 [(6R)-5,6,7,8-tetrahydrobiopterin]. Before experimental use, the cells (from second or third passage) were rinsed twice with Tyrode-HEPES buffer with 1.8 mM CaCl2.
The omega-3 fatty acids (O3FAs) cis-5,8,11,14,17-eicosapentaenoic acid (EPA) and docosahexaenoic acid (DHA) were purchased from Sigma-Aldrich (St. Louis, Mo.) and prepared initially at 11 mM in redistilled ethanol. Primary and secondary O3FA stock solutions were prepared and stored under argon at −20° C. […]
Oxidation was monitored by the use of measurements of TBARS. […] TBARS concentration was determined as malondialdehyde (MDA) equivalents with the use of an MDA standard curve. […]
The amperometric method (with a response time of 0.1 ms) provides a quantitative signal (current) that is directly proportional to changes (from basal levels) in NO or ONOO^− concentration. […] Basal NO or ONOO^− levels were measured by differential pulse voltammetry in separate experiments. […]

What does the source list for `CC/C=C\C/C=C\C/C=C\C/C=C\C/C=C\CCCC(=O)O` [EPA, cis-5,8,11,14,17-eicosapentaenoic acid]?
reduction of TBARS levels ([1]; 1.0 μM): 13%; reduction of TBARS levels ([1]; 10.0 μM): 57%

Which “NO/ONOO^− Ratio” value [2] does the source give for `O=C(O)c1cccnc1` [Niacin, nicotinic acid] here?
Its value is 2.00 ± 0.52.

What about the NO release ([2]; unit printed in b302 only) of the same compound?
The NO release was 431 ± 100 nM.
